Test results published in patent US8129398B2 (priority 2008, dated 2012).

What follows are compounds tested against T1, HIV-integrase (Human immunodeficiency virus type 1 group M subtype B, UniProt P12497) (assay: HIV-Integrase Inhibition Activity (SPA bead integration assay with P33 labeled target DNA)). Settings: recombinant integrase, class symbols; read-out: in vitro activity.
T1 construct: Recombinant integrase (0.26 ng) was incubated with the beads
Type: biochemical
Method in brief: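 Biotinylated substrate DNA on streptavidin SPA beads loaded with recombinant integrase (90 min, 37° C), washed, then inhibitor plus 0.1 fmol P33-labeled target DNA added. Reaction stopped with 10 mM EDTA; integration measured as CPM by scintillation, giving IC50 ranks.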
`Cc1noc(C)c1S(=O)(=O)N1CCN(C(=O)C(=O)NC23CCC(CC2)Cn2c3nc(C(=O)NCc3ccc(F)cc3)c(O)c2=O)CC1` [Example 146, 10-(((4-((3,5-Dimethyl-4-isoxazolyl)sulfonyl)-1-piperazinyl)(oxo)acetyl)amino)-N-(4-fluorobenzyl)-3-hydroxy-4-oxo-4,6,7,8,9,10-hexahydro-7,10-ethanopyrimido[1,2-a]azepine-2-carboxamide] showed an IC50 of under 10 nM.
`Cc1cc(CNC(=O)c2nc3n(c(=O)c2O)CCC2CCC3(NC(=O)C(=O)N3CC[C@@H](F)C3)C2)ccc1F` (stereo partly drawn) [Example 216, 8,11-Methano-4H-pyrimido[1,2-a]azocine-2-carboxamide, N-[(4-fluoro-3-methylphenyl)methyl]-11-[[2-[(3R)-3-fluoro-1-pyrrolidinyl]-1,2-dioxoethyl]amino]-6,7,8,9,10,11-hexahydro-3-hydroxy-4-oxo-] was tested, and the IC50 was under 10 nM.
`CN(C(=O)C(=O)NC12CCC(CC1)Cn1c2nc(C(=O)NCc2ccc(F)cc2)c(O)c1=O)C1CC1` [Example 82, N-Cyclopropyl-N′-(2-((4-fluorobenzyl)carbamoyl)-3-hydroxy-4-oxo-6,7,8,9-tetrahydro-7,10-ethanopyrimido[1,2-a]azepin-10(4H)-yl)-N-methylethanediamide] showed an IC50 of under 10 nM.
With `CCCS(=O)(=O)N1CCCC1C(=O)NC12CCC(CC1)Cn1c2nc(C(=O)NCc2ccc(F)cc2)c(O)c1=O` (stereo not drawn) [Example 404] the IC50 was under 10 nM.
Compound `O=C(NC12CCC(CCn3c1nc(C(=O)NCc1ccc(F)cc1)c(O)c3=O)C2)C(=O)N1CCC(F)CC1` (stereo not drawn) [Example 203, 8,1,1-Methano-4H-pyrimido[1,2-a]azocine-2-carboxamide, N-[(4-fluorophenyl)methyl]-11-[[2-(4-fluoro-1-piperidinyl)-1,2-dioxoethyl]amino]-6,7,8,9,10,11-hexahydro-3-hydroxy-4-oxo-] has an IC50 of under 10 nM.
In the case of `O=C(NC12CCC(CC1)Cn1c2nc(C(=O)NCc2ccc(F)cc2)c(O)c1=O)C(=O)N1CCC[C@H]1CO` [Example 69, N-(4-Fluorobenzyl)-3-hydroxy-10-((((2S)-2-(hydroxymethyl)-1-pyrrolidinyl)(oxo)acetyl)amino)-4-oxo-4,6,7,8,9,10-hexahydro-7,10-ethanopyrimido[1,2-a]azepine-2-carboxamide], the IC50 is reported as under 10 nM.
In the case of `O=C(NC12CCC(CC1)Cn1c2nc(C(=O)NCc2ccc(F)cc2)c(O)c1=O)OCCO` [Example 260, Carbamic acid, [2-[[[(4-fluorophenyl)methyl]amino]carbonyl]-6,7,8,9-tetrahydro-3-hydroxy-4-oxo-7,10-ethanopyrimido[1,2-a]azepin-10(4H)-yl]-, 2-hydroxyethyl ester], the IC50 is reported as under 10 nM.
Work on `CN(C)C(=O)C(=O)NC12CCC(CC1)Cn1c2nc(C(=O)NCc2ccccc2OC(F)(F)F)c(O)c1=O` [Example 386] yielded an IC50 of under 10 nM.
Work on `CN1CCC[C@H]1C(=O)NC12CCC(CC1)Cn1c2nc(C(=O)NCc2ccc(F)cc2)c(O)c1=O` [Example 258, 7,10-Ethanopyrimido[1,2-a]azepine-2-carboxamide, N-[(4-fluorophenyl)methyl]-4,6,7,8,9,10-hexahydro-3-hydroxy-10-[[[(2S)-1-methyl-2-pyrrolidinyl]carbonyl]amino]-4-oxo-] yielded an IC50 of 10 to 100 nM.
In the case of `O=C(NC12CCC(CC1)Cn1c2nc(C(=O)NCc2ccc(F)cc2)c(O)c1=O)C(=O)N1CCCC1` [Example 58, N-(4-Fluorobenzyl)-3-hydroxy-4-oxo-10-((oxo(1-pyrrolidinyl)acetyl)amino)-4,6,7,8,9,10-hexahydro-7,10-ethanopyrimido[1,2-a]azepine-2-carboxamide], the IC50 is reported as under 10 nM.
For `CN(C(=O)c1ccncc1)C12CCC(CC1)Cn1c2nc(C(=O)NCc2ccc(F)cc2)c(O)c1=O` [Example 310, 7,10-Ethanopyrimido[1,2-a]azepine-2-carboxamide, N-[(4-fluorophenyl)methyl]-4,6,7,8,9,10-hexahydro-3-hydroxy-10-[methyl(4-pyridinylcarbonyl)amino]-4-oxo-], the IC50 was under 10 nM.
Work on `CC(=O)N1CC[C@H]1C(=O)NC12CCC(CC1)Cn1c2nc(C(=O)NCc2ccc(F)cc2)c(O)c1=O` [Example 267, 7,10-Ethanopyrimido[1,2-a]azepine-2-carboxamide, 10-[[[(2S)-1-acetyl-2-azetidinyl]carbonyl]amino]-N-[(4-fluorophenyl)methyl]-4,6,7,8,9,10-hexahydro-3-hydroxy-4-oxo-] yielded an IC50 of under 10 nM.
For `COCCN(C)C(=O)C(=O)NC12CCC(CC1)Cn1c2nc(C(=O)NCc2ccc(F)cc2)c(O)c1=O` [Example 100, N′-(2-((4-Fluorobenzyl)carbamoyl)-3-hydroxy-4-oxo-6,7,8,9-tetrahydro-7,10-ethanopyrimido[1,2-a]azepin-10(4H)-yl)-N-(2-methoxyethyl)-N-methylethanediamide], the IC50 was under 10 nM.
Compound `O=C1C[C@@H](C(=O)NC23CCC(CC2)Cn2c3nc(C(=O)NCc3ccc(F)cc3)c(O)c2=O)N1` [Example 264, 7,10-Ethanopyrimido[1,2-a]azepine-2-carboxamide, N-[(4-fluorophenyl)methyl]-4,6,7,8,9,10-hexahydro-3-hydroxy-4-oxo-10-[[[(2S)-4-oxo-2-azetidinyl]carbonyl]amino]-] has an IC50 of under 10 nM.
For `Cn1cccc1C(=O)C(=O)NC12CCC(CC1)Cn1c2nc(C(=O)NCc2ccc(F)cc2)c(O)c1=O` [Example 45, N-(4-Fluorobenzyl)-3-hydroxy-10-(((1-methyl-1H-pyrrol-2-yl) (oxo)acetyl)amino)-4-oxo-4,6,7,8,9,10-hexahydro-7,10-ethanopyrimido[1,2-a]azepine-2-carboxamide], the IC50 was under 10 nM.
With `CC(=O)NC12CCC(Cn3c1nc(C(=O)NCc1ccc(F)cc1)c(O)c3=O)OC2` (stereo not drawn) [Example 221, 10-(Acetylamino)-N-(4-fluorobenzyl)-3-hydroxy-4-oxo-4,6,7,8,9,10-hexahydro-7,10-(epoxymethano)pyrimido[1,2-a]azepine-2-carboxamide] the IC50 was under 10 nM.
In the case of `CS(=O)(=O)N1[C@@H]2C[C@@H]2C[C@H]1C(=O)NC12CCC(CC1)Cn1c2nc(C(=O)NCc2ccc(F)cc2)c(O)c1=O` [Example 294, 7,10-Ethanopyrimido[1,2-a]azepine-2-carboxamide, N-[(4-fluorophenyl)methyl]-4,6,7,8,9,10-hexahydro-3-hydroxy-10-[[[(1R,3S,5R)-2-(methylsulfonyl)-2-azabicyclo[3.1.0]hex-3-yl]carbonyl]amino]-4-oxo-], the IC50 is reported as under 10 nM.
In the case of `CC(=O)NC12CCCC(Cn3c1nc(C(=O)NCc1ccc(F)cc1)c(O)c3=O)C2` (stereo not drawn) [Example 187, 7,11-Methano-4H-pyrimido[1,2-a]azocine-2-carboxamide, 11-(acetylamino)-N-[(4-fluorophenyl)methyl]-6,7,8,9,10,11-hexahydro-3-hydroxy-4-oxo-], the IC50 is reported as under 10 nM.
`CN(C)C(=O)C(=O)NC12CCC(CC1)Cn1c2nc(C(=O)NCc2ccc(N(C)C)cc2)c(O)c1=O` [Example 378] gave an IC50 of 10 to 100 nM.
Work on `CN(C)C12CCC(CC1)Cn1c2nc(C(=O)NCc2ccc(F)cc2)c(O)c1=O` [Example 150, 10-(Dimethylamino)-N-(4-fluorobenzyl)-3-hydroxy-4-oxo-4,6,7,8,9,10-hexahydro-7,10-ethanopyrimido[1,2-a]azepine-2-carboxamide] yielded an IC50 of over 100 nM.
`CN(C)C(=O)C(=O)NC12CCC(CC1)Cn1c2nc(C(=O)NCc2ccc(F)cc2CO)c(O)c1=O` [Example 122, N′-(2-((4-Fluoro-2-(hydroxymethyl)benzyl)carbamoyl)-3-hydroxy-4-oxo-6,7,8,9-tetrahydro-7,10-ethanopyrimido[1,2-a]azepin-10(4H)-yl)-N,N-dimethylethanediamide] was tested, and the IC50 was under 10 nM.
